Results from patent US11230541B2, “Heterocyclic compound” (Takeda Pharmaceutical Company Limited, priority 2017, dated 2022).

target: T1, NMDA receptor containing the NR2B subunit (Homo sapiens, UniProt Q13224); test: not given; conditions: in vivo; cited from earlier work
T1 sequence (Q13224 27-1484, other chains not shown): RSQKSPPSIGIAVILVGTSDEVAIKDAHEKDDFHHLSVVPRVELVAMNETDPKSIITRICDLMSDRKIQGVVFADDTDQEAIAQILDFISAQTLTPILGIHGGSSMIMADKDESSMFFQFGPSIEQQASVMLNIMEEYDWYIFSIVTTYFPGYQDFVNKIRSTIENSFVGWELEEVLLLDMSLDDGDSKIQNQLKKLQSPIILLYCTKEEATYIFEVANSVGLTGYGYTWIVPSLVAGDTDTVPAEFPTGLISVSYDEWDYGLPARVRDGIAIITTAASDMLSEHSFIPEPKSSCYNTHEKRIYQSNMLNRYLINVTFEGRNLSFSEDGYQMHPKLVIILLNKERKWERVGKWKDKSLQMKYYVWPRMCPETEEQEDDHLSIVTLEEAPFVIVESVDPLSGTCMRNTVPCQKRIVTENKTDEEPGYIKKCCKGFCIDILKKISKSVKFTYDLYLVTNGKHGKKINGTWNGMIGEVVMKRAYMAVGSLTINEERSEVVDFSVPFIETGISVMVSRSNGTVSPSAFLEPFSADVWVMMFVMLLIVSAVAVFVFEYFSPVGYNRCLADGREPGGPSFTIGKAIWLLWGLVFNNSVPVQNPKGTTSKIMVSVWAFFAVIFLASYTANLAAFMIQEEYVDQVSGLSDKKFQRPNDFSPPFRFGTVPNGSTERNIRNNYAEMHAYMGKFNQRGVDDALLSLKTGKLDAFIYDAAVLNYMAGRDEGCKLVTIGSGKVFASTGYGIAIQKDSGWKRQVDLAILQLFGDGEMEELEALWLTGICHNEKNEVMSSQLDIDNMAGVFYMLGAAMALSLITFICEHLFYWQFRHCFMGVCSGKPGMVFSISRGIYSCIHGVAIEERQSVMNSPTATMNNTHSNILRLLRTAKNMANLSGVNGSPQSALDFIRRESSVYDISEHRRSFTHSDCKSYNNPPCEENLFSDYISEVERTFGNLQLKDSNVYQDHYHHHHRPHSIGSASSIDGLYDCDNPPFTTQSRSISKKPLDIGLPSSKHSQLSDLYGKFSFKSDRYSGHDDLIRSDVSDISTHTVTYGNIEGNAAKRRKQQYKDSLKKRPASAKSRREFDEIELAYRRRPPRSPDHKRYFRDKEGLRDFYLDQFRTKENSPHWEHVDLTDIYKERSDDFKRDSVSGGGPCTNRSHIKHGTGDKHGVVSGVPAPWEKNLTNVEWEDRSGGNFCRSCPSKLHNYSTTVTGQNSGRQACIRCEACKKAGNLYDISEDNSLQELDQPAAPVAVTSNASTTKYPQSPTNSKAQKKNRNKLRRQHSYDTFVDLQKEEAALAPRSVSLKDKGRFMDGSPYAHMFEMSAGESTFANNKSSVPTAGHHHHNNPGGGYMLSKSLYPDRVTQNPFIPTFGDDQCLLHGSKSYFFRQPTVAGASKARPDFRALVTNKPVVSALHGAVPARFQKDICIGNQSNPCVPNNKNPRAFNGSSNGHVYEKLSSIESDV

In the case of `CC(C(O)c1ccc(O)cc1)N1CCC(Cc2ccccc2)CC1` (centres unmarked) [Ifenprodil], the pain sense threshold is listed as “pain sense threshold increases”.

test system: NMDA receptor; test: not given; conditions: in vivo; cited from earlier work

In the case of `CC12CC3CC(C)(C1)CC(N)(C3)C2` [memantine], the “peripheral symptoms of dementia” value is given as “partially improves peripheral symptoms of dementia”.

target: T2, NMDA receptor containing the NR2B subunit (Rattus norvegicus, UniProt Q00960); test: not given; conditions: rodents; cited from earlier work
T2 construct: host or cells: rodents, in vivo
T2 sequence (Q00960 27-1482, other chains not shown): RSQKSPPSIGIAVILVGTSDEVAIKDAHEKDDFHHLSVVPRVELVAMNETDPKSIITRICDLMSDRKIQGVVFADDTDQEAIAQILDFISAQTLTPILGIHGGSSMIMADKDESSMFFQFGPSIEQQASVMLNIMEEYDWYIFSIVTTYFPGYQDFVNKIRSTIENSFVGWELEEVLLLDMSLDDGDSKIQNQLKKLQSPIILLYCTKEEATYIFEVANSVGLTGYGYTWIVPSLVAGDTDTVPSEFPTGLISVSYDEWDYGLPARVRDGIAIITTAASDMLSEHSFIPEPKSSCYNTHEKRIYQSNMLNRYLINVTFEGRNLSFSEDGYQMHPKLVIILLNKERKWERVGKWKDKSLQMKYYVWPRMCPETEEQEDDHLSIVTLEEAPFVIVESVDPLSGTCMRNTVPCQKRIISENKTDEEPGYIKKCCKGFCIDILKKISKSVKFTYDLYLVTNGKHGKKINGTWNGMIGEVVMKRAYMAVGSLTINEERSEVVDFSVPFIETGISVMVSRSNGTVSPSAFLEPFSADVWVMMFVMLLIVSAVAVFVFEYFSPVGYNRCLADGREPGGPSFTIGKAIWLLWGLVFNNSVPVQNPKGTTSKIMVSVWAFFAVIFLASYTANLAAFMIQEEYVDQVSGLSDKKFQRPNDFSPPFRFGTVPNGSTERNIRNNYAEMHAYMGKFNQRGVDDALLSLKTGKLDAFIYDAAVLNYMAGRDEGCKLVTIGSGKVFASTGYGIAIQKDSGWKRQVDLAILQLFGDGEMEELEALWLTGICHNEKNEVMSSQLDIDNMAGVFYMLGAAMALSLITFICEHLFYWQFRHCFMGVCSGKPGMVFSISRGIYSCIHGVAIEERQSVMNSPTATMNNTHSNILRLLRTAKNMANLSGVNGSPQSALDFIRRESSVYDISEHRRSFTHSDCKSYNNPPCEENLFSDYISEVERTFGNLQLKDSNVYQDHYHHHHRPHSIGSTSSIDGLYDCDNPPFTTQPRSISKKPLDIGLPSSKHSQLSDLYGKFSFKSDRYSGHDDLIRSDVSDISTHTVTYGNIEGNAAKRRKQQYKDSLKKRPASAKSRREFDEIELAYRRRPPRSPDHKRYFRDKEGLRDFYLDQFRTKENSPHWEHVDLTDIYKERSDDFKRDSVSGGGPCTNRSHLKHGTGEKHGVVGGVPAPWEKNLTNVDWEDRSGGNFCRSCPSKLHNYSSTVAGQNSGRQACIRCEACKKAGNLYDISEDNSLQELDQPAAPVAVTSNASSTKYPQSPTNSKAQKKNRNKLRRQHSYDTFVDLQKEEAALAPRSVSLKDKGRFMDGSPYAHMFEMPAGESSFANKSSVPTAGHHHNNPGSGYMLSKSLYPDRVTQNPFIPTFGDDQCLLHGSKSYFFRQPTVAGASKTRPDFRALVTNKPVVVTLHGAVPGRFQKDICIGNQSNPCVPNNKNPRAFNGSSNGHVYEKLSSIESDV

In the case of `C[C@@H]([C@@H](O)c1ccc(O)cc1)N1CCC(O)(c2ccccc2)CC1` [CP-101, 606], the “number of occurrence and depth of cortical spreading depression” value is listed as “suppress the number of occurrence and the depth of cortical spreading depression”.
In the case of `C[C@@H](CN1CCC(Cc2ccccc2)CC1)[C@@H](O)c1ccc(O)cc1` [Ro25-6981], the “number of occurrence and depth of cortical spreading depression” value is listed as “suppress the number of occurrence and the depth of cortical spreading depression”.

target: T3, NMDA receptor composed of four subunits including 2 sets of heterodimers of NR1 and NR2B (Homo sapiens, UniProt Q13224); test: NR2B Ca2+ influx assay (FLIPR, Fluo-4) in HEK293 cells expressing human GRIN1 and GRIN2B; format: cell-based; conditions: HEK293, 10 μM final compound concentration, glutamic acid/glycine-induced Ca2+ influx, read-out: inhibitory rate (10 μM compound concentration)
T3 construct: host or cells: HEK293 (tetracycline-induced expression)
Procedure, shortened: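 Inhibition rate was calculated from 5-min cumulative Fluo-4 signal (FLIPR, 3-s reads), using agonist-free buffer wells as 100% inhibition. Compound, 10 μM final, was applied 15 min before adding buffer with 30 μM glutamic acid and glycine to HEK293 cells with tetracycline-induced human NR1/NR2B, in HEPES pH 7.2 with 1.8 mM CaCl2.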

T3 sequence (Q13224 27-1484, other chains not shown): as the sequence (Q13224 27-1484, other chains not shown) above

Point of comparison: `COc1ccc2ncn(C)c2c1CNC(=O)Nc1ccc(C)c(F)c1` [Example 218, 1-(3-fluoro-4-methylphenyl)-3-((6-methoxy-1-methyl-1H-benzimidazol-7-yl)methyl)urea], inhibition at 10 µM 93%. Against it:
- O=C(NCc1cccc2[nH]ncc12)c1ccc(F)c(Cl)c1 [Example 186, 3-chloro-4-fluoro-N-(1H-indazol-4-ylmethyl)benzamide] — lower, 56%
- O=C(NCc1c(C2CC2)ccc2[nH]ncc12)c1cc(F)c(Cl)c(Cl)c1 [Example 87, 3,4-dichloro-N-((5-cyclopropyl-1H-indazol-4-yl)methyl)-5-fluorobenzamide] — higher, 94%
- O=C(Cc1cccs1)NCc1c(C2CC2)ccc2[nH]ncc12 [Example 65, N-((5-cyclopropyl-1H-indazol-4-yl)methyl)-2-(2-thienyl)acetamide] — lower, 90%
- Cc1ccc(C(=O)NCc2c(C3CC3)ccc3[nH]ncc23)s1 [Example 64, N-((5-cyclopropyl-1H-indazol-4-yl)methyl)-methylthiophene-2-carboxamide] — lower, 91%
- Cc1ccc2ncn(C)c2c1CNC(=O)c1ccc(OC(F)(F)F)cc1 [Example 152, N-((1,6-dimethyl-1H-benzimidazol-7-yl)methyl)-4-(trifluoromethoxy)benzamide] — lower, 91%
- COc1ccc2ncn(C)c2c1CNC(=O)c1cnc(OC)c(Cl)c1 [Example 57, 5-chloro-6-methoxy-N-((6-methoxy-1-methyl-1H-benzimidazol-7-yl)methyl)nicotinamide] — lower, 91%
- O=C(NCc1c(C2CC2)ccc2[nH]ncc12)c1ccc(F)c(C(F)(F)F)c1 [Example 85, N-((5-cyclopropyl-1H-indazol-4-yl)methyl)-4-fluoro-3-(trifluoromethyl)-benzamide] — the same, 93%
- COc1ccc2nc(C)n(C)c2c1CNC(=O)c1ccc(F)c(Cl)c1 [Example 247, 3-chloro-4-fluoro-N-((6-methoxy-1,2-dimethyl-1H-benzimidazol-7-yl)methyl)benzamide] — lower, 71%
- COc1ccc2ncn(C)c2c1CNC(=O)c1cc(Cl)cs1 [Example 42, 4-chloro-N-((6-methoxy-1-methyl-1H-benzimidazol-7-yl)-methyl)thiophene-2-carboxamide] — lower, 87%
- COc1ccc2[nH]nnc2c1CNC(=O)c1cc(F)c(OC)c(F)c1 [Example 207, 3,5-difluoro-4-methoxy-N-((5-methoxy-1H-benzotriazol-4-yl)methyl)benzamide] — higher, 98%
- Cc1ccc2ncn(C)c2c1CNC(=O)c1ccc(OC(F)(F)F)c(F)c1 [Example 30, N-((1,6-dimethyl-1H-benzimidazol-7-yl)-methyl)-3-fluoro-4-(trifluoromethoxy)-benzamide] — lower, 90%
- Cc1cc(C(=O)NCc2c(C3CC3)ccc3[nH]ncc23)cs1 [Example 66, N-((5-cyclopropyl-1H-indazol-4-yl)methyl)-methylthiophene-3-carboxamide] — lower, 91%
- Cc1ccc(C(=O)NCc2cccc3[nH]ncc23)cc1Cl [Example 185, 3-chloro-N-(1H-indazol-4-ylmethyl)-4-methylbenzamide] — lower, 74%
- COc1ccc2ncn(C)c2c1CNC(=O)c1cc(F)c(C(F)(F)F)c(F)c1 [Example 24, 3,5-difluoro-N-((6-methoxy-1-methyl-1H-benzimidazol-7-yl)-methyl)-4-(trifluoro-methyl)benzaraide] — lower, 90%
- COc1ccc2ncn(C)c2c1CNC(=O)c1ccc(OC(F)(F)F)nc1 [Example 56, ((6-methoxy-1-methyl-1H-benzimidazol-7-yl)methyl)-6-(trifluoro-methoxy)nicotinamide] — the same, 93%
- O=C(NCc1c(C2CC2)ccc2[nH]ncc12)c1ccc(C(F)(F)F)c(F)c1 [Example 92, N-((5-cyclopropyl-1H-indazol-4-yl)methyl)-3-fluoro-4-(trifluoro-methyl)benzamide] — the same, 93%
- CCc1ccc2ncn(C)c2c1CNC(=O)c1ccc(OC)cc1 [Example 145, N-((6-ethyl-1-methyl-1H-benzimidazol-7-yl)methyl)-4-methoxybenzamide] — lower, 92%
- O=C(NCc1c(C2CC2)ccc2[nH]ncc12)c1ccc(C(F)F)c(F)c1 [Example 118, N-((5-cyclopropyl-1H-indazol-4-yl)methyl)-4-(difluoromethyl)-3-fluorobenzamide] — higher, 94%
- CCc1ccc2[nH]nnc2c1CNC(=O)c1ccc(OC(F)(F)F)cc1 [Example 209, N-((5-ethyl-1H-benzotriazol-4-yl)methyl)-4-(trifluoromethoxy)-benzamide] — higher, 94%
- O=C(NCc1c(C2CC2)ccc2[nH]ncc12)c1cc(F)c(F)c(Cl)c1 [Example 95, 3-chloro-N-((5-cyclopropyl-1H-indazol-4-yl)methyl)-4,5-difluorobenzamide] — higher, 95%
- Cc1csc(C(=O)NCc2c(C3CC3)ccc3[nH]ncc23)c1 [Example 63, N-((5-cyclopropyl-1H-indazol-4-yl)methyl)-methylthiophene-2-carboxamide] — lower, 89%
- COc1ccc2ncn(C)c2c1CNC(=O)c1csc(C(F)F)c1 [Example 110, 5-(difluoromethyl)-N-((6-methoxy-1-methyl-1H-benzimidazol-7-yl)methyl)thiophene-3-carboxamide] — lower, 92%
- COc1ccc2ncn(C)c2c1CNC(=O)c1ccc(C(F)F)c(F)c1 [Example 124, 4-(difluoromethyl)-3-fluoro-N-((6-methoxy-1-methyl-1H-benzimidazol-7-yl)methyl)benzamide] — lower, 90%
- COc1ccc(C(=O)NCc2c(C)ccc3ncn(C)c23)cc1F [Example 129, N-((1,6-dimethyl-1H-benzimidazol-7-yl)methyl)-3-fluoro-4-methoxybenzamide] — lower, 88%
- Cc1ccc2ncn(C)c2c1CNC(=O)c1ccc(OC(F)F)nc1 [Example 159, 6-(difluoromethoxy)-N-((1,6-dimethyl-1H-benzimidazol-7-yl)methyl)nicotinamide] — lower, 86%

target: T1, NMDA receptor containing the NR2B subunit; test: not given; conditions: continuous intravenous administration; cited from earlier work

For `C[C@@H]([C@@H](O)c1ccc(O)cc1)N1CCC(O)(c2ccccc2)CC1` [CP-101, 606], the treatment resistant-depression symptom is given as “significantly improves treatment resistant-depression symptom”.

test system: NMDA receptor; test: not given; conditions: continuous intravenous administration; cited from earlier work

In the case of `CNC1(c2ccccc2Cl)CCCCC1=O` (centres unmarked) [ketamine], the “depression symptom accompanying major depression and bipolar disorder” value is listed as “improves depression symptom accompanying major depression and bipolar disorder rapidly and in a sustained manner”.
